The target of data set [1] is T1, 5-hydroxytryptamine 2B (5-HT2B) receptor (Homo sapiens, UniProt P41595).
T1 construct: expressed in transfected cells; host or cells: Ca2+ optimized hematopoietic cell lines (rat)
In words: Ca2+ assay (FLIPR), 5-hydroxytryptamine 2B (5-HT2B) receptor, agonist mode (percentage activation). The class given is cell-based. How it is done: Dose dependent agonist and antagonist activities were determined. Percentage activation and percentage inhibition values were determined.
Percentage activation was determined upon initial addition of the sample compounds followed by 10 minutes incubation at 25° C. Following compound incubation, reference agonists were added at EC80 to determine percentage inhibition.
All handling of ligands were done to ensure proper control throughout the experiments.
HBSS was supplemented with 20 mM HEPES (4-(2-hydroxyethyl)-piperazin-1-ethansulfonic acid) and 2.5 mM Probenecid (Sigma P8761).
GPCR assays were performed using Ca^2+ optimized hematopoietic cell lines (rat) with cultures never exceeding 90% confluency. […] After seeding, the assay plates were incubated for forty-five (45) minutes at room temperature. After room temperature incubation, the assay plates were incubated at 37° C. 5% CO2 for 24 hours prior to assaying.
All GPCR assays were performed using Fluo-8 Ca^2+ dye. Ca^2+ dye was prepared at 1× dye concentration in GPCR assay buffer. […] The plates were incubated for 90 minutes at 30° C. 5% CO2 prior to FLIPR assay.
Compound plates were prepared to add 50 μL/well during the agonist assay mode. During the FLIPR assay, 50 μL/well from the compound plate was diluted 3-fold into the existing 100 μL/well from the dye loading step. Therefore all compounds were prepared as 3× the final concentration desired in the assay.
After completion of the first single addition assay run, assay plate was removed from the FLIPR Tetra and placed at 25° C. for seven (7) minutes before antagonist assay.
From the FLIPR data, with negative control correction enabled, the maximum statistic for each well was exported and percentage activation relative to Emax control was calculated.

Data set [2] can be described thus: Metabolic stability, human microsomes. The class given is in vitro ADME. The settings on record: 37° C.; for Metabolic Stability 60 min hum: % of the initial 0 minutes value at 60 min, 10 μM. How it is done: (§1) Microsomes from a human 50 donor mixed gender pool and 1:1 mixtures of microsomes from CD-1 mouse single-gender pools are purchased from Celsis (Belgium). The enzymatic reaction is performed in a buffer containing an NADPH regeneration system and microsomes with the following end concentrations: 100 mM potassium phosphate buffer (all from Sigma), 1 mg/mL glucose-6-phosphate, 1 mg/mL β-nicotinamide adenine dinucleotide phosphate (NADP), 0.65 mg/mL magnesium chloride, 0.8 units/mL of glucose-6-phosphate dehydrogenase (prediluted with 5 mM citrate buffer), 10 μM compound and 1 mg/ml microsomal protein. Compounds are incubated at 37° C. in duplicates and samples are taken after 0, 20 and 60 minutes. After acetonitrile precipitation (2 volumes) and HPLC/MS/MS analysis metabolic turnover is expressed in % of the initial 0 minutes value and half life T½ (min) is calculated. Verapamil for human and propranolol for mouse are used as reference and are assayed with every experimental set. • F. P. Guengerich, Analysis and Characterization of Enzymes; in: Principles and Methods of Toxicology; A. W. Hayes (Ed.) Raven Press: New York, 1989, 777-813. • R. Singh et al., In vitro metabolism of a potent HIV-protease inhibitor (141W94) using rat, monkey and human liver S9, Rapid Commun. Mass Spectrom. 1996, 10, 1019-1026. 5. Results

Data set [3] can be described thus: Metabolic stability, CD-1 mouse microsomes. The class given is in vitro ADME. The following applies: 37° C.; for Metabolic Stability 60 min mouse: % of the initial 0 minutes value at 60 min, 10 μM. The method, then: as §1
For data set [4] the following is noted: human, 10 μM.
Method: (§2) Example compounds were dissolved in DMSO/H2O 90:10 to a final concentration of 10 mM for plasma stability determination and metabolic stability determination.
(§3) Human plasma (3-5 donors, Blutspendedienst SRK, Basel) and CD-1 mouse plasma (mixed gender pool>50 animals, Innovative Research, CA, USA) are both sodium citrate stabilized. The assay is performed in triplicates at 10 μM compound concentration and 37° C. Samples are taken at 0, 15, 60, and 240 minutes and stopped by precipitation with 2 volumes of acetonitrile. The supernatant is collected, evaporated and reconstituted in a 5% acetonitrile solution to be analyzed by HPLC/MS/MS. The resulting peak area counts are expressed in percent of the 0 value and used to determine the endpoint stability in % and the half life T½ in minutes. In order to monitor assay integrity the degradation of propantheline is assayed with every experimental set
For data set [5] the following is noted: both, CD-1, mouse, 10 μM.
Method: as §2, §3
Data set [6] is described as follows: Plasma stability, human plasma. The following applies: endpoint stability in % of the 0 value at 240 min, 10 μM, 37° C.
Method: as §2, §3
Data set [7] is described as follows: Plasma stability, CD-1 mouse plasma. The following applies: endpoint stability in % of the 0 value at 240 min, 10 μM, 37° C.
Method: as §2, §3
[8] abbreviates: 10 μM compound, 1 mg/ml microsomal protein, sampling up to 60 min.

Like-named read-outs stand apart in the source and are kept apart here.

This is an account of results in US9695191B2, “Conformationally constrained, fully synthetic macrocyclic compounds” (POLYPHOR AG, priority 2009, dated 2017).

T1 sequence (P41595 whole entry): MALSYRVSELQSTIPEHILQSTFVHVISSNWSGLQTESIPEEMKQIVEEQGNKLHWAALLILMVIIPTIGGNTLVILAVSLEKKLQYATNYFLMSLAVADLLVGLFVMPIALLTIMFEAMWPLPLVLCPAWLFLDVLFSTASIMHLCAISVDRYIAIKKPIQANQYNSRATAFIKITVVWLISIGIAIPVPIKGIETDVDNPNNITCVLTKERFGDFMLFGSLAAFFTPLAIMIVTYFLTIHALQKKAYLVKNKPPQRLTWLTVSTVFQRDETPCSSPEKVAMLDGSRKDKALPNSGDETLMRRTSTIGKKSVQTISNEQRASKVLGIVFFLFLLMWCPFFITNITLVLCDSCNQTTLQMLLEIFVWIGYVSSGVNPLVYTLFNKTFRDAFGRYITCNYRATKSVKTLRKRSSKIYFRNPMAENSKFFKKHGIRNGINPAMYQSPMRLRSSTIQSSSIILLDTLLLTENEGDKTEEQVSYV

For `CN1CC(=O)N2C[C@@H](NC(=O)OC(C)(C)C)C[C@H]2COc2ccc(F)cc2C(=O)N(C)[C@H](C(=O)NCCc2c[nH]c3ccccc23)CCC1=O` [Ex. 30, tert-butyl N-[(2S,11S,19aS)-15-fluoro-11-({[2-(1H-indol-3-yl)ethyl]amino}carbonyl)-7,12-dimethyl-5,8,13-trioxo-2,3,6,7,8,9,10,11,12,13,19,19a-dodecahydro-1H,5H-pyrrolo[2,1-c][1,4,7,12]benzoxatriazacyclopentadecin-2-yl]carbamate], the “5-HT2B receptor agonist activity [% activation at 12.5 μM]” value in data set [1] is given as 48%. In addition, the “Metabolic Stability 60 min hum” value in data set [2] was 2%. For the same molecule, the “Metabolic Stability 60 min mouse” value in data set [3] was determined as 55%. Moreover, the “Plasma Stability 240 min hum” value in data set [4] came out at 85%. In addition, the “Plasma Stability 240 min mouse” value in data set [5] is 100%.
Consider `CCCCC(=O)N[C@H]1C[C@H]2COc3ccc(F)cc3C(=O)N(C)[C@@H](C(=O)NCc3ccc4ccccc4c3)CCC(=O)N(C)CC(=O)N2C1` [Ex. 103, (2S,115,19aS)-15-fluoro-7,12-dimethyl-N-(2-naphthylmethyl)-5,8,13-trioxo-2-(pentanoylamino)-2,3,6,7,8,9,10,11,12,13,19,19a-dodecahydro-1H,5H-pyrrolo[2,1-c][1,4,7,12] benzoxatriazacyclopentadecine-11-carboxamide], for which, in data set [2] (setting [8]), the “Metabolic Stability T ½ [min] hum” value stood at 35 min. Also, in data set [2], the “Metabolic Stability 60 min hum” value turned out to be 22%. In data set [3] (setting [8]), the “Metabolic Stability T ½ [min] mouse” value is given as 36 min. Besides, the “Metabolic Stability 60 min mouse” value in data set [3] was found to be 25%. Also, the “Plasma Stability 240 min hum” value in data set [6] is 97%. Moreover, the “Plasma Stability 240 min mouse” value in data set [7] is recorded as 75%.
As to `CC(=O)N[C@H]1C[C@H]2COc3ccc(F)cc3C(=O)N(C)[C@H](C(=O)NCCc3c[nH]c4ccccc34)CCC(=O)N(C)CC(=O)N2C1` [Ex. 9, (2S,11S,19aS)-2-(acetylamino)-15-fluoro-N-[2-(1H-indol-3-yl)ethyl]-7,12-dimethyl-5,8,13-trioxo-2,3,6,7,8,9,10,11,12,13,19,19a-dodecahydro-1H,5H-pyrrolo[2,1-c][1,4,7,12] benzoxatriazacyclopentadecine-11-carboxamide], the “5-HT2B receptor agonist activity [% activation at 12.5 μM]” value in data set [1] is reported as 48%. In data set [2], the “Metabolic Stability 60 min hum” value is listed as 20%. In addition, the “Metabolic Stability 60 min mouse” value in data set [3] is 80%. Besides, the “Plasma Stability 240 min hum” value in data set [4] is on record as 99%. Besides, the “Plasma Stability 240 min mouse” value in data set [5] worked out at 93%.
In the case of `CN1CC(=O)N2C[C@@H](NC(=O)Cc3c[nH]c4ccccc34)C[C@H]2COc2ccc(F)cc2C(=O)N(C)[C@H](C(=O)NCCc2c[nH]c3ccccc23)CCC1=O` [Ex. 12, (2S,11S,19aS)-15-fluoro-2-{[2-(1H-indol-3-yl)acetyl]amino}-N-[2-(1H-indol-3-yl)ethyl]-7,12-dimethyl-5,8,13-trioxo-2,3,6,7,8,9,10,11,12,13,19,19a-dodecahydro-1H,5H-pyrrolo [2,1-c][1,4,7,12]benzoxatriazacyclopentadecine-11-carboxamide], the “5-HT2B receptor agonist activity [% activation at 12.5 μM]” value in data set [1] amounted to 36%. Besides, the “Metabolic Stability 60 min hum” value in data set [2] was determined as 7%. In data set [3], the “Metabolic Stability 60 min mouse” value turned out to be 33%. Also, the “Plasma Stability 240 min hum” value in data set [4] stood at 99%. In data set [5], the “Plasma Stability 240 min mouse” value came out at 100%.
On the same counts, the results for `CN(C)CC(=O)N[C@H]1C[C@H]2COc3ccc(F)cc3C(=O)N(C)[C@H](C(=O)NCCc3c[nH]c4ccccc34)CCC(=O)N(C)CC(=O)N2C1` [Ex. 16, (2S,11S,19aS)-2-{[2-(dimethylamino)acetyl]amino}-15-fluoro-N-[2-(1H-indol-3-yl)ethyl]-7,12-dimethyl-5,8,13-trioxo-2,3,6,7,8,9,10,11,12,13,19,19a-dodecahydro-1H,5H-pyrrolo [2,1-c][1,4,7,12]benzoxatriazacyclopentadecine-11-carboxamide] are 45%, 31%, 79%, 95% and 97%.
